How the values were obtained:
Assay type in all cases: cell-based
[1] = tested on: cultured cells of Taxus baccata LINN; assay: Growth rate and taxane yield, shake culture under controlled oxygen concentration in the gas phase, with or without methyl jasmonate; conditions: max oxygen in gas phase 10%; for yield of baccatin III / yield of cephalomannine / yield of taxol: cell + medium
Method: One gram (fresh weight) of the callus was inoculated to an Erlenmeyer flask containing 20 ml of liquid Woody Plant Medium to which the above-mentioned component had been added to give the same concentration and shake culture was carried out with a rotary shaker (amplification of 25 mm, 100 rpm) and the callus was subcultured in every 21 days to accelerate the growth rate of the callus.
One gram (fresh weight) of the cultured cells thus obtained was inoculated to an Erlenmeyer flask containing 20 ml of liquid Woody Plant Medium to which the above-mentioned component had been added to give the same concentration, and the flask was placed in a chamber (the capacity of 3000 ml) having a gas feed opening and a gas discharge opening, then the chamber was closed hermetically, and air was so mixed with nitrogen that the concentration of the oxygen in a gas to be supplied to the cells to be cultured became 4-15%, and while the gas was supplied through the feed opening at the rate of 25 ml per minute, shake culture was carried out at 25° C. for 21 days.
After completing the culture, cultured cells of Taxus baccata LINN were harvested by filtration and lyophilized, then the dry weight was measured to obtain the growth rate thereof. Taxane-type diterpenes were extracted from the dried cells with methanol and the like, and they were determined by comparing with standard taxol, cephalomannine, and baccatin III using high performance liquid chromatography to measure the yields of the taxane-type diterpenes.

[2] = tested on: cultured cells of Taxus baccata LINN; assay: Two-stage culture: first stage with potassium peroxodisulfate, second stage with methyl jasmonate; cell yield and taxol yield; conditions: for yield of cells, second stage of the culture / yield of taxol, second stage of the culture: second stage with methyl jasmonate 100 μM on the 14th day; for content of taxol, first stage of the culture / yield of cells, first stage of the culture: added 1st day
Method: After completing the culture, the cultured cells were harvested by filtration and a part of the cells were used as seed cells for the second stage of the culture and the rest of the cells were subjected to the measurement of the cell yield and the taxane content in the cells. Accordingly, 1 g (fresh weight) of the cultured cells were inoculated to an Erlenmeyer flask containing 20 ml of liquid Woody Plant Medium to which naphthalenacetic acid had been added to give the concentration of 10^−5M and shake culture was carried out at 25° C. for 14 days. On the 14th day of the culture, methyl jasmonate was added to the medium to give the concentration in the medium of 100 μM and the culture was further continued for another 7 days. On the other hand, the rest of the cells obtained in the first stage of the culture were lyophilized, then the dry weight was measured to obtain the cell yield thereof per liter of the liquid medium. The content of taxol in the dried cells was measured by high performance liquid chromatography. The yield of the cells and the yield of taxol were measured for the cells obtained by second stage of the culture in the same manner as that for the cells obtained in the first stage of the culture.

[3] = tested on: cultured cells of Taxus baccata LINN; assay: Taxane-type diterpene yield and cell yield, shake culture of Taxus baccata cells with a jasmonic acid (or jasmone) added
[4] = first stage with potassium peroxodisulfate 5 × 10^−3M
[5] = first stage with potassium peroxodisulfate 5 × 10^−4M
[6] = first stage with potassium peroxodisulfate 10^−3M
[7] = first stage with potassium peroxodisulfate 10^−4M
[8] = first stage with potassium peroxodisulfate 10^−5M
[9] = potassium peroxodisulfate 5 × 10^−3M in the medium
[10] = potassium peroxodisulfate 5 × 10^−4M in the medium
[11] = potassium peroxodisulfate 10^−3M in the medium
[12] = potassium peroxodisulfate 10^−4M in the medium
[13] = potassium peroxodisulfate 10^−5M in the medium
[14] = 0.01 μM added on 14th day, 7 more days
[15] = 0.1 μM added on 14th day, 7 more days
[16] = 1 μM added on 14th day, 7 more days
[17] = 10 μM added on 14th day, 7 more days
[18] = 50 μM added on 14th day, 7 more days
[19] = 100 μM added on 14th day, 7 more days
[20] = 250 μM added on 14th day, 7 more days
[21] = 500 μM added on 14th day, 7 more days
[22] = 1000 μM added on 14th day, 7 more days

CCC=CCC1C(=O)CCC1CC(=O)OC (stereo not shown) [Example 66]
growth rate ([1]; methyl jasmonate 10 μM): 2.82 times
total yield of taxane ([1]; methyl jasmonate 10 μM): 14.73 mg/L
yield of baccatin III ([1]; methyl jasmonate 10 μM): 2.26 mg/L
yield of cephalomannine ([1]; methyl jasmonate 10 μM): 1.73 mg/L
yield of taxol ([1]; methyl jasmonate 10 μM): 10.24 mg/L
growth rate ([1]; methyl jasmonate 100 μM): 2.45 times
total yield of taxane ([1]; methyl jasmonate 100 μM): 36.05 mg/L
yield of baccatin III ([1]; methyl jasmonate 100 μM): 11.32 mg/L
yield of cephalomannine ([1]; methyl jasmonate 100 μM): 2.29 mg/L
yield of taxol ([1]; methyl jasmonate 100 μM): 22.44 mg/L
growth rate ([1]; methyl jasmonate 1000 μM): 1.47 times
total yield of taxane ([1]; methyl jasmonate 1000 μM): 8.61 mg/L
yield of baccatin III ([1]; methyl jasmonate 1000 μM): 2.10 mg/L
yield of cephalomannine ([1]; methyl jasmonate 1000 μM): 1.47 mg/L
yield of taxol ([1]; methyl jasmonate 1000 μM): 5.04 mg/L

O=S(=O)([O-])OOS(=O)(=O)[O-].[K+].[K+] [Example 77]
yield of cells, second stage of the culture [2, 4]: 12.1 g/L
yield of taxol, second stage of the culture [2, 4]: 11.7 ppm
yield of cells, second stage of the culture [2, 5]: 14.4 g/L
yield of taxol, second stage of the culture [2, 5]: 16.3 ppm
yield of cells, second stage of the culture [2, 6]: 13.0 g/L
yield of taxol, second stage of the culture [2, 6]: 13.6 ppm
yield of cells, second stage of the culture [2, 7]: 15.0 g/L
yield of taxol, second stage of the culture [2, 7]: 20.4 ppm
yield of cells, second stage of the culture [2, 8]: 15.6 g/L
yield of taxol, second stage of the culture [2, 8]: 14.0 ppm
content of taxol, first stage of the culture [2, 9]: 45 ppm
yield of cells, first stage of the culture [2, 9]: 14.0 g/L
content of taxol, first stage of the culture [2, 10]: 183 ppm
yield of cells, first stage of the culture [2, 10]: 15.5 g/L
content of taxol, first stage of the culture [2, 11]: 84 ppm
yield of cells, first stage of the culture [2, 11]: 15.2 g/L
content of taxol, first stage of the culture [2, 12]: 250 ppm
yield of cells, first stage of the culture [2, 12]: 16.2 g/L
content of taxol, first stage of the culture [2, 13]: 97 ppm
yield of cells, first stage of the culture [2, 13]: 17.1 g/L

CCC=CCC1=C(C)CCC1=O [Comparative Example 24]
cell yield ([3]; jasmone 0.1 μM): 12.2 g/L
yield of baccatin III ([3]; jasmone 0.1 μM, cell + medium): 0.3 mg/L
yield of cephalomannine ([3]; jasmone 0.1 μM, cell + medium): 1.2 mg/L
yield of taxol ([3]; jasmone 0.1 μM, cell + medium): 3.0 mg/L
cell yield ([3]; jasmone 1 μM): 12.1 g/L
yield of baccatin III ([3]; jasmone 1 μM, cell + medium): 0.4 mg/L
yield of cephalomannine ([3]; jasmone 1 μM, cell + medium): 1.0 mg/L
yield of taxol ([3]; jasmone 1 μM, cell + medium): 3.2 mg/L
cell yield ([3]; jasmone 10 μM): 11.3 g/L
yield of baccatin III ([3]; jasmone 10 μM, cell + medium): 0.3 mg/L
yield of cephalomannine ([3]; jasmone 10 μM, cell + medium): 0.8 mg/L
yield of taxol ([3]; jasmone 10 μM, cell + medium): 3.3 mg/L
cell yield ([3]; jasmone 100 μM): 11.3 g/L
yield of baccatin III ([3]; jasmone 100 μM, cell + medium): 0.3 mg/L
yield of cephalomannine ([3]; jasmone 100 μM, cell + medium): 0.6 mg/L
yield of taxol ([3]; jasmone 100 μM, cell + medium): 3.2 mg/L
cell yield ([3]; jasmone 1000 μM): 10.9 g/L
yield of baccatin III ([3]; jasmone 1000 μM, cell + medium): 0.2 mg/L
yield of cephalomannine ([3]; jasmone 1000 μM, cell + medium): 0.8 mg/L
yield of taxol ([3]; jasmone 1000 μM, cell + medium): 2.5 mg/L

CC/C=C\C[C@H]1C(=O)CC[C@@H]1CC(=O)O [jasmonic acid]
cell yield [3, 14]: 12.2 g/L
yield of baccatin III [3, 14]: 0.3 mg/L
yield of cephalomannine [3, 14]: 0.6 mg/L
yield of taxol [3, 14]: 2.2 mg/L
cell yield [3, 15]: 12.2 g/L
yield of baccatin III [3, 15]: 0.3 mg/L
yield of cephalomannine [3, 15]: 0.6 mg/L
yield of taxol [3, 15]: 3.4 mg/L
cell yield [3, 16]: 11.6 g/L
yield of baccatin III [3, 16]: 0.3 mg/L
yield of cephalomannine [3, 16]: 0.8 mg/L
yield of taxol [3, 16]: 5.9 mg/L
cell yield [3, 17]: 11.5 g/L
yield of baccatin III [3, 17]: 0.5 mg/L
yield of cephalomannine [3, 17]: 2.6 mg/L
yield of taxol [3, 17]: 8.3 mg/L
cell yield [3, 18]: 11.4 g/L
yield of baccatin III [3, 18]: 2.5 mg/L
yield of cephalomannine [3, 18]: 2.2 mg/L
yield of taxol [3, 18]: 10.2 mg/L
cell yield [3, 19]: 10.3 g/L
yield of baccatin III [3, 19]: 7.2 mg/L
yield of cephalomannine [3, 19]: 3.0 mg/L
yield of taxol [3, 19]: 12.8 mg/L
cell yield [3, 20]: 10.1 g/L
yield of baccatin III [3, 20]: 10.6 mg/L
yield of cephalomannine [3, 20]: 2.7 mg/L
yield of taxol [3, 20]: 14.7 mg/L
cell yield [3, 21]: 10.2 g/L
yield of baccatin III [3, 21]: 12.0 mg/L
yield of cephalomannine [3, 21]: 1.1 mg/L
yield of taxol [3, 21]: 11.1 mg/L
cell yield [3, 22]: 6.7 g/L
yield of baccatin III [3, 22]: 1.2 mg/L
yield of cephalomannine [3, 22]: 0.5 mg/L
yield of taxol [3, 22]: 1.2 mg/L
